Experimental data published in ChEMBL document CHEMBL5360655, “Design, Synthesis, and Biological Evaluation of Novel P2X7 Receptor Antagonists for the Treatment of Septic Acute Kidney Injury” (J Med Chem, 2023).
The source made the active and inactive calls. The rule behind the calls is not given here.

How the values were obtained:
[1] = Ratio of MTD in ip dosed C57BL/6J mouse to MED for reno-protective activity against ip dosed LPS-induced acute kidney injury C57BL/6J mouse model; type: ADME, organism-based; conditions: in vivo
Mus musculus [2] = assay: (§1) Reno-protective activity against CLP-induced acute kidney injury C57BL/6J mouse model assessed as decrease in NLRP3 protein expression in kidney at 20 mg/kg, ip administered twice at 30 mins prior to CLP operation and 8 hrs post-CLP operation and measured at 16 hrs post-CLP operation by western blot analysis; type: functional, organism-based; conditions: time 16.5 hrs
Mus musculus [3] = assay: as §1, with “GSDMD-N” for “NLRP3”; type: functional, organism-based; conditions: time 16.5 hrs
[4] = Toxicity in C57BL/6J mouse assessed as pathological changes in testes at 20 mg/kg, ip administered twice at 0 hrs and 8 hrs and measured after 16 hrs by Hematoxylin-Eosin staining based analysis; type: organism-based; conditions: in vivo
[5] = Cmax in BALB/c mouse at 10 mg/kg, po measured for 24 hrs by LC-MS/MS analysis; type: ADME, organism-based; set-up: time 24 hrs, dose 10 mg/kg, route po; conditions: in vivo
[6] = molecular target: Voltage-gated inwardly rectifying potassium channel KCNH2 (Homo sapiens, UniProt Q12809); assay: Inhibition of hERG expressed in CHO cells; type: toxicity, cell-based
Voltage-gated inwardly rectifying potassium channel KCNH2, sequence (Q12809 whole entry): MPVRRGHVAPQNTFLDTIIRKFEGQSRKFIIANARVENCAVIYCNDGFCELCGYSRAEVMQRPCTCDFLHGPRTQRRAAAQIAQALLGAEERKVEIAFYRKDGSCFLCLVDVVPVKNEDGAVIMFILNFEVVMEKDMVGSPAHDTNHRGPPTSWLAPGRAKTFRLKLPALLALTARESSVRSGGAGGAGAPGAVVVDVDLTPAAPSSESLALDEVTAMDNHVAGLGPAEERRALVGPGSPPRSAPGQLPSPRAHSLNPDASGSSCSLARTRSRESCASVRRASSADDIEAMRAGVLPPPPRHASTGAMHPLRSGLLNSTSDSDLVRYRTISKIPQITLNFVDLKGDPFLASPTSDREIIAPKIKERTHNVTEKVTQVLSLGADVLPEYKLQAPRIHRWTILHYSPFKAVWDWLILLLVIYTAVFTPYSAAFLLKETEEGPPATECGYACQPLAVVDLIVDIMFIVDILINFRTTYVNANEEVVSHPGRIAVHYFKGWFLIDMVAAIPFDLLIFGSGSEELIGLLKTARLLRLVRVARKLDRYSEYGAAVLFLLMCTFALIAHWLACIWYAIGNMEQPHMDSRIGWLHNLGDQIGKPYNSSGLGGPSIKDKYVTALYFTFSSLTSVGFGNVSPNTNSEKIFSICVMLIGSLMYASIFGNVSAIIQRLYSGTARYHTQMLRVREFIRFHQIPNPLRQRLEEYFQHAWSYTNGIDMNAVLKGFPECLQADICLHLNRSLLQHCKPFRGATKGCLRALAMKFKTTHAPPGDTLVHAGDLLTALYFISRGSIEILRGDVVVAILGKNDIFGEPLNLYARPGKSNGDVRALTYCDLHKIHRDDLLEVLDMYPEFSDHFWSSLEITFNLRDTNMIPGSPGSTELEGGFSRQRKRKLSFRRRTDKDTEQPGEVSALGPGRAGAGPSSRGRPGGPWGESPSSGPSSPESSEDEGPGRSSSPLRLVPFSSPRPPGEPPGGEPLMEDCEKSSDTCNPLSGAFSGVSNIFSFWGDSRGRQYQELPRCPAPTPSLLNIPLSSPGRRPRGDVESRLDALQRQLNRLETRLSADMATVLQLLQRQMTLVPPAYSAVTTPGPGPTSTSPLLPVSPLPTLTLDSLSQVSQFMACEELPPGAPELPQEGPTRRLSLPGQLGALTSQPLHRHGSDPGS

P2X purinoceptor 7 [7] = molecular target: T1, P2X purinoceptor 7 (Mus musculus, UniProt Q9Z1M0); assay: Antagonist activity at mouse P2X7 receptor expressed in HEK293 cells assessed as inhibition of ATP-induced receptor pore formation by propidium iodide dye uptake based fluorescence analysis; type: cell-based
T1 sequence (Q9Z1M0 whole entry): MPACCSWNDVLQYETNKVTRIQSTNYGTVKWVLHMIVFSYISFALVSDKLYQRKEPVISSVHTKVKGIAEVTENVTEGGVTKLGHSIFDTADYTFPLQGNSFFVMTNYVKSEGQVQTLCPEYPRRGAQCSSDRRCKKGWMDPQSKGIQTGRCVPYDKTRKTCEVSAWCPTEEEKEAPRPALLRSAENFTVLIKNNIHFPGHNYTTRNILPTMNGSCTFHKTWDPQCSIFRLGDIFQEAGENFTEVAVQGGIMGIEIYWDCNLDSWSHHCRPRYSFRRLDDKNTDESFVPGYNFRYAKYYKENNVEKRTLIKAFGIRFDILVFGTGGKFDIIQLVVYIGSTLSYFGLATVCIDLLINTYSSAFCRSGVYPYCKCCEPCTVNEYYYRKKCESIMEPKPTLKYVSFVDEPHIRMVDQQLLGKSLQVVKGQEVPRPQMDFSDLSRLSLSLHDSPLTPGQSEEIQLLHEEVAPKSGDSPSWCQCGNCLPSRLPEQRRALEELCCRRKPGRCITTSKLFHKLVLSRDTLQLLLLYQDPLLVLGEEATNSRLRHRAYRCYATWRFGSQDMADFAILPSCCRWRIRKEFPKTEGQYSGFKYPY

HEK293 = assay: Cytotoxicity against human HEK293 cells transfected with human P2X7 receptor assessed as effect on cell viability at 1 to 4 uM incubated for 2 hrs by CCK8 assay; type: toxicity, cell-based; conditions: hek293, 2 h, dose 1-4 µM
[8] = molecular target: T2, P2X purinoceptor 7 (Mus musculus) (UniProt Q9Z1M0); assay: Antagonist activity at mouse P2X7 receptor expressed in HEK293 cells assessed as inhibition of ATP-induced receptor pore formation at 200 nM by propidium iodide dye uptake based fluorescence analysis; type: cell-based; conditions: filed as antagonist
T2 sequence (whole entry): T1 sequence (Q9Z1M0 whole entry)

Mus musculus [9] = assay: Reno-protective activity against LPS-induced acute kidney injury C57BL/6J mouse model assessed as decrease in serum […] level at 5 to 20 mg/kg, ip administered twice at 30 mins prior to LPS challenge and 8 hrs post-LPS challenge and measured at 16 hrs post-LPS challenge; type: functional, organism-based; conditions: dose 5-20 mg/kg, time 16.5 hrs
Cytochrome P450 2C19 = Cytochrome P450 2C19 (Homo sapiens, UniProt P33261); assay: Inhibition of CYP2C19 in human liver microsomes using S-mephenytoin as substrate upto 100 uM incubated for 10 mins in presence of NADPH by LC-MS/MS analysis; type: ADME, Microsome
Cytochrome P450 2C19, sequence (P33261 whole entry): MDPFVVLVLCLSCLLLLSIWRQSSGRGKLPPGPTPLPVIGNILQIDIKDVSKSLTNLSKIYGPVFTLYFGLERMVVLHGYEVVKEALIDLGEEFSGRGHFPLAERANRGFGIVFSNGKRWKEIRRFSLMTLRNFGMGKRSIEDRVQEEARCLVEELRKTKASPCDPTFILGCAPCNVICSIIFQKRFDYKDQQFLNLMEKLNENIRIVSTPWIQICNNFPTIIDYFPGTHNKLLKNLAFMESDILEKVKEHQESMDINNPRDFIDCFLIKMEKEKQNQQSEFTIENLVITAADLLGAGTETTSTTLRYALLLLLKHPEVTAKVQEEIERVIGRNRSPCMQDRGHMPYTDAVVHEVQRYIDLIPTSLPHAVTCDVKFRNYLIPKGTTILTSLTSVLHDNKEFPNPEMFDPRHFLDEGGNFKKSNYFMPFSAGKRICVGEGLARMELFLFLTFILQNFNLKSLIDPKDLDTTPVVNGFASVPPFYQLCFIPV

Mus musculus [10] = assay: Reno-protective activity against LPS-induced acute kidney injury C57BL/6J mouse model assessed as decrease in BUN level at 10 mg/kg, ip administered twice at 30 mins prior to LPS challenge and 8 hrs post-LPS challenge and measured at 16 hrs post-LPS challenge; type: functional, organism-based; conditions: time 16.5 hrs
[11] = Half life in BALB/c mouse at 10 mg/kg, ip measured for 24 hrs by LC-MS/MS analysis; type: ADME, organism-based; conditions: in vivo
[12] = Toxicity in C57BL/6J mouse assessed as pathological changes in spleen at 20 mg/kg, ip administered twice at 0 hrs and 8 hrs and measured after 16 hrs by Hematoxylin-Eosin staining based analysis; type: organism-based; conditions: in vivo
THP-1 = assay: Inhibition of ATP-induced ROS production in human THP-1 cells at […] pretreated with LPS for 3 hrs followed by incubation with compound for 40 mins followed by treatment with ATP for 1 hr by DCFH-DA staining based fluorescence microscopic analysis; type: functional, cell-based; conditions: dose 2.5 µM, time 100.0 min
P2X purinoceptor 7 [13] = molecular target: T3, P2X purinoceptor 7 (Homo sapiens, UniProt Q99572); assay: Antagonist activity at human P2X7 receptor expressed in HEK293 cells assessed as inhibition of ATP-induced receptor pore formation by propidium iodide dye uptake based fluorescence analysis; type: cell-based
T3 sequence (Q99572 whole entry): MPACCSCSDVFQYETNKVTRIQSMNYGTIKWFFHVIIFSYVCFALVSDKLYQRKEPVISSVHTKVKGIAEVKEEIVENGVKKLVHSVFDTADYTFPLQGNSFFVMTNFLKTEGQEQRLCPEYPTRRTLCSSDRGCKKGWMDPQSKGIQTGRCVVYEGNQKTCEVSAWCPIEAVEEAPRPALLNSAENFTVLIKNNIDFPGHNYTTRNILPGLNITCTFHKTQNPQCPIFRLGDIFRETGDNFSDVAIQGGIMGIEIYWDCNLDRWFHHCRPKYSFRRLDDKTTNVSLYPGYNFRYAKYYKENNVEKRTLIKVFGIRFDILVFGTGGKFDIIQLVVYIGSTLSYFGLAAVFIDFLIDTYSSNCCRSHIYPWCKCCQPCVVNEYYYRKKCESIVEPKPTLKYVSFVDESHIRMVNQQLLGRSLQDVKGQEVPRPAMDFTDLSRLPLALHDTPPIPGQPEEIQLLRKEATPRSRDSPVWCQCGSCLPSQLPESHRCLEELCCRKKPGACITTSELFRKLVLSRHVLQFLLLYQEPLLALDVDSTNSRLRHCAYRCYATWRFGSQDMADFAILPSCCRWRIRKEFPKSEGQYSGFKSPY

[14] = Toxicity in C57BL/6J mouse assessed as animal's survival rate at 400 mg/kg, ip measured for 14 days; type: organism-based; conditions: in vivo, time 14 day
Mus musculus [15] = assay: Reno-protective activity against LPS-induced acute kidney injury C57BL/6J mouse model assessed as decrease in BUN level at 5 to 20 mg/kg, ip administered twice at 30 mins prior to LPS challenge and 8 hrs post-LPS challenge and measured at 16 hrs post-LPS challenge; type: functional, organism-based; conditions: dose 5-20 mg/kg, time 16.5 hrs
[16] = Tmax in BALB/c mouse at 10 mg/kg, iv measured for 24 hrs by LC-MS/MS analysis; type: ADME, organism-based; conditions: in vivo
[17] = molecular target: T4, P2X purinoceptor 7 (Homo sapiens) (UniProt Q99572); assay: Antagonist activity at human P2X7 receptor expressed in HEK293 cells assessed as inhibition of ATP-induced receptor pore formation at 200 nM by propidium iodide dye uptake based fluorescence analysis; type: cell-based; conditions: filed as antagonist
T4 sequence (whole entry): T3 sequence (Q99572 whole entry)

CS(=O)(=O)c1ccc(-c2nc(C(=O)NCc3cn(-c4cc(Br)ccn4)nn3)cs2)cc1
selectivity ratio [1]: 80
Activity (Mus musculus [2]): Active
Activity (Mus musculus [3]): Active
Activity [4]: Non-Toxic
Cmax [5]: 1300 ng/mL
IC50 [6]: > 30000 nM
IC50 (P2X purinoceptor 7 [7]): 10.1 nM
Activity (HEK293): Non-Toxic
inhibition [8]: 101%
Activity (Mus musculus [9]): Dose-Dependent Effect
inhibition (INH) (Cytochrome P450 2C19): Not Active
Activity (Mus musculus [10]): Active
half-life [11]: 6.12 h
Activity [12]: Non-Toxic
inhibition (THP-1): Active
IC50 (P2X purinoceptor 7 [13]): 64.7 nM
survival at 336 h [14]: 100%
Activity (Mus musculus [15]): Dose-Dependent Effect
Tmax [16]: 0.19 h
inhibition [17]: 92%
